Laboratory results as given in patent publication US20250281502A1, “NEW DRUG APPLICATION” (Centre National de la Recherche Scientifique, priority 2021, published 2025).

Tests used:
[1] = test system: Human Myeloma Cell Lines (HMCLs); experiment: CellTiter-Glo cell viability, IC50 in human myeloma cell lines; assay type: cell-based
Method: JJN3, OPM2, RPM18266, LP1, AMO1, SKMM2 human myeloma cell lines (HMCLs) were obtained from ATCC (Molshein, France) and were cultured in RPMI 1640 medium, supplemented with 10% fetal calf serum (Biochrom, Berlin, Germany) and 2 mM L-Glutamine. The interleukin-6-dependent cell lines XG1, XG2, XG6, XG7, XG12, XG19, XG20, XG21 were obtained as previously described and maintained in the presence of 2 ng/mL recombinant IL-6 (R&D Systems, Oxon, UK), 10% fetal calf serum and 2 mM L-Glutamine.
Cells in culture were stained using trypan blue solution (Sigma-Aldrich, St. Louis MO, USA) and viable cells were counted under a light microscope. The CellTiter-Glo Luminescent Viability assay (Promega, Leiden, The Netherlands) was used to measure the effect on cell viability according to manufacturer's instructions, and the 50% inhibition (IC50) was determined using GraphPad Prism software (http://www.graphpad.com/scientific-software/prism/).

XG2 cell line = experiment: Melphalan IC50 with or without Pyridostatin, XG2 cell line; assay type: cell-based; details: Homo sapiens
XG2-MeIR cell line = experiment: Melphalan response with or without Pyridostatin, Melphalan-resistant XG2 cell line; assay type: cell-based, human; details: 4 days (FIGS. 14 and 15)
[2] = test system: primary MM cells from patients; experiment: Primary patient samples, viable CD138+ MM cells by flow cytometry; assay type: cell-based, human; details: co-cultured with bone marrow microenvironment (FIG. 6B, 6C)
[3] = test system: normal cells from the bone marrow microenvironment; experiment: Primary patient samples, co-cultured normal bone marrow cells by flow cytometry; assay type: cell-based, human; details: five MM patients (FIG. 6C)
Method: FIG. 6A represents the IC50 of Pyridostatin (nM) for […]: a is OPM2; b is XG12; c is XG21; d is XG19; e is RPM18266; f is LP1; g is XG6; h is JJN3; I is XG2; j is XG7; k: L363; I is XG1; m is AMO1; n is SKMM2 and o is XG20. IC50 of Pyridostatin +/−SD are representative of 3 independent experiments. NA: not reached. FIG. 6B represents the Pyridostatin toxicity on bone marrow cells (x-axis is the Pyridostatin concentration in μM; y-axis is the cell count in percentage of the control (0 μM of Pyridostatin)). The toxicity of Pyridostatin was assessed on primary bone marrow cells from one MM patient (dark grey bars), co-cultured with normal bone marrow microenvironment (light grey). The toxicity on MM cells and normal bone marrow cells was assessed by flow cytometry using CD138 and CD28 marker cells. FIG. 6C represents the Pyridostatin toxicity on bone marrow cells (x-axis is the Pyridostatin concentration in μM; y-axis is the cell count in percentage of the control (0 μM of Pyridostatin)). The toxicity of Pyridostatin was assessed on primary bone marrow cells from five MM patient (black bars) and co-cultured with normal bone marrow microenvironment (grey bars). The toxicity on MM cells and normal bone marrow cells was assessed by flow cytometry using CD138 and CD28 marker cells. Data are mean values of five independent experiments. […]

XG7-RH = experiment: Western blot of DNA damage response in XG7 with inducible RNase H; assay type: cell-based, human; details: XG7-RH with doxycycline, 5 h or 24 h (FIG. 7)
Method: FIGS. 7A and 7B represent Western blots. Doxy stands for doxycycline. PDS stands for Pyridostatin (concentration in μM). XG7 cell line was transduced with a doxycycline-inducible lentivirus containing RNase H gene (XG7-RH). XG7-RH was cultured with or without doxycycline in absence or presence of Pyridostatin during 5 h or 24 h. Western blot membranes were stained with anti-Phospho-Chk2, anti-Phospho-P53, anti-P53, anti-PARP, anti-myc (FIG. 7A) and anti-p21, anti-p16, anti-p27 and anti-gH2AX (FIG. 7B). Tubulin protein level was used as control.
Western Blot Analysis Western blot analysis was performed as previously described (Viziteu, E. et al., Leukemia 31, 2104-2113, 2017). Tubulin was used as loading control. All antibodies used were purchased from Cell Signaling, except for p21, p27, Myc, and phospho-Histone H2A.X. Myc antibody was obtained from Santa Cruz biotechnology (Texas, USA), phospho-Histone H2A.X antibody from Merck Millipore (Sigma-Aldrich), and p27 antibody was from Sigma-Aldrich.

MM cell = MM cell growth, apoptosis and cell cycle after Pyridostatin; assay type: cell-based, human

CCNC(=O)C[C@@H]1N=C(c2ccc(Cl)cc2)c2cc(OC)ccc2-n2c(C)nnc21 [I-BET-762, (4S)-6-(4-Chlorophenyl)-N-ethyl-8-methoxy-1-methyl-4H-[1,2,4]triazolo[4,3-a][1,4]benzodiazepine-4-acetamide] was tested, and the “sensitivity of HMCLs with high TRC score compared to low TRC score” value [1] was “significantly more sensitive”.

Work on N[C@@H](Cc1ccc(N(CCCl)CCCl)cc1)C(=O)O [Melphalan] yielded an IC50 (XG2 cell line; 96 h, black bars, Melphalan and Pyridostatin at 1.25 μM for 4 days, first value printed for XG2 (FIG. 15)) of 1490 nM, an IC50 (XG2 cell line; 96 h, black bars, Melphalan and Pyridostatin at 1.25 μM for 4 days, second value printed for XG2 (FIG. 15)) of 632 nM and an IC50 (XG2 cell line; grey bars, Melphalan alone, first value printed for XG2 (FIG. 15)) of 632 nM. The IC50 (XG2 cell line; grey bars, Melphalan alone, second value printed for XG2 (FIG. 15)) was 350 nM.

For COc1cc(OC)c2c(=O)[nH]c(-c3cc(C)c(OCCO)c(C)c3)nc2c1 [RVX-208, 2-[4-(2-hydroxyethoxy)-3,5-dimethylphenyl]-5,7-dimethoxy-4(3H)-quinazolinone], the “sensitivity of HMCLs with high TRC score compared to low TRC score” value [1] was “significantly more sensitive”.

For NCCOc1cc(C(=O)Nc2cc(OCCN)c3ccccc3n2)nc(C(=O)Nc2cc(OCCN)c3ccccc3n2)c1 [Pyridostatin], the “resistance to PDS” value ([1]; 5 cell lines (FIG. 6A)) was “higher resistance”, the IC50 ([1]; Homo sapiens, 10 HMCLs (FIG. 6A), read-out: IC50 of Pyridostatin) was ≤ 2000 nM and the “re-sensitization of resistant cells to Melphalan” value (XG2-MeIR cell line) was “re-sensitize the resistant cells (XG2-MeIR) to Melphalan”. The “toxicity on primary MM cells” value [2] was “toxicity”, the “toxicity on co-cultured normal cells” value [3] was “without any significant toxicity” and the “DNA damage response after PDS treatment on inducible RNase H expression (phosphorylation of Chk2, p53; p21 and p16 expression)” value (XG7-RH) was “significant reduction of DNA damage response”. The MM cell growth (MM cell) was “inhibits MM cell growth”, the apoptosis (MM cell) was “induces apoptosis” and the cell cycle (MM cell) was “significant accumulation in G2/M phase”.
